Source: patent US12398125B2, “Nitrogen-containing saturated heterocyclyl derivative” (Sumitomo Pharma Co., Ltd., priority 2022, dated 2025)
Structures can show the parent of a compound that is named as a salt.

Tested on: α-synuclein aggregate in neurospheroid prepared from human iPS cells with a mutation in PLA2G6 gene
Assay: Test 2: suppressing the accumulation of α-synuclein aggregate with neurospheroid
Assay type: cell-based
Conditions: 120 h, DMSO = 100%, compound added day 4, measured day 9 after induction of differentiation; for activity at 0.1 µM: 100 nM, read-out: Amount of aggregate (%) 100 nM; for activity at 1 µM: 1000 nM, read-out: Amount of aggregate (%) 1000 nM
Description: Test 2: Evaluation of Suppressing the Accumulation of α-Synuclein Aggregate with Neurospheroid Prepared from Human iPS Cells with a Mutation in PLA2G6 Gene
(1) Induction of Differentiation from Human iPS Cell to Neural Cell
Neural stem cells were induced from PLA2G6 gene mutant iPS cells with PSC Neuronal Induction Medium (Thermo Fisher Scientific Inc., cat #A1647801). Neurospheroid was prepared from the induced neural stem cells by three-dimensional culture system, and preserved with BrainPhys Neuronal Medium (STEMCELL Technologies, cat #ST-05793) comprising NeuroCult SM1 Neuronal Supplement, N2 Supplement-A, 20 ng/mL BDNF, 20 ng/mL GDNF, 1 mM dibutyryl cAMP, and 200 nM ascorbic acid. Half of the culture medium was replaced on day 2 and day 4 after the induction of differentiation.
The test compound was diluted with the culture medium so as to be twice the final concentration, and an equal volume of the twice-concentrated solution was added to each well when half of the culture medium was replaced on day 4 after induction of differentiation.
(2) Evaluation of the Amount of α-Synuclein Aggregate
From the neurospheroid 9 days after the induction of differentiation, proteins were extracted with a TBS solution containing 1% TritionX-100, and the extracted proteins were subjected to a protein analysis with Simple Western system (Protein Simple, Inc., cat #SM-W008) using an α-synuclein antibody (Thermo Fisher Scientific Inc., cat #AHB0261) to measure the amount of the α-synuclein aggregate.
Assuming that the amount of the aggregate in the neurospheroid added with a DMSO solution is 100%, the amount of the aggregate in the neurospheroid added with each test compound was evaluated.

CC1(C(=O)N2CCC(c3cccnc3C(F)(F)F)CC2)CN(C2CC2)C1 [Example 67, (1-Cyclopropyl-3-methylazetidin-3-yl){4-[2-(trifluoromethyl)pyridin-3-yl]piperidin-1-yl}methanone]
activity at 0.1 µM: 82%
activity at 1 µM: 64%

O=C([C@@H]1CCCO1)N1CCC(c2ccc(C(F)(F)F)nc2)CC1 [Example 28]
activity at 0.1 µM: 23%
activity at 1 µM: 63%

CN1CC(C)(C(=O)N2CCC(c3ccc(C(F)(F)F)nc3)C2)C1 (centres unmarked) [Example 47]
activity at 0.1 µM: 1%
activity at 1 µM: 55%

O=C(N1CCC(c2ccc(C(F)(F)F)nc2)CC1)N1C[C@H]2CC[C@@H](C1)O2 [Example 62]
activity at 0.1 µM: 81%
activity at 1 µM: 51%

CCC1(C(=O)N2CCCC(c3ccc(C(F)(F)F)nc3)C2)COC1 (centres unmarked) [Example 12]
activity at 0.1 µM: 35%
activity at 1 µM: 12%

O=C(C1COC1)N1CCC(c2ccc(C(F)(F)F)nc2)CC1 [Example 50]
activity at 0.1 µM: 86%
activity at 1 µM: 101%

C[C@H]1C[C@H](c2ccc(C(F)(F)F)nc2)CCN1C(=O)C1(C)COC1 [Example 17]
activity at 0.1 µM: 28%
activity at 1 µM: 40%

CN1CC(C)(C(=O)N2CCC(c3ccc(C(F)(F)F)nc3)CC2)C1 [Example 41, (1,3-Dimethylazetidin-3-yl){4-[6-(trifluoromethyl)pyridin-3-yl]piperidin-1-yl}methanone hydrochloride]
activity at 0.1 µM: 57%
activity at 1 µM: 70%

CC1(C(=O)N2CCC(c3cccnc3C(F)(F)F)CC2)COC1 [Example 4, (3-methyloxetan-3-yl){4-[2-(trifluoromethyl)pyridin-3-yl]piperidin-1-yl}methanone]
activity at 0.1 µM: 30%
activity at 1 µM: 29%

CC1(C)COCCN1C(=O)N1CCC(c2ccc(C(F)(F)F)nc2)CC1 [Example 63]
activity at 0.1 µM: 68%
activity at 1 µM: 58%

CC1(C(=O)N2CCC(c3ccc(Cl)nc3)CC2)COC1 [Example 54]
activity at 0.1 µM: 63%
activity at 1 µM: 35%

CC1(C(=O)N2CCCC(c3ccc(C(F)(F)F)nc3)C2)COC1 (centres unmarked) [Example 11]
activity at 0.1 µM: 3%
activity at 1 µM: 97%

CCC1(C(=O)N2CCC(c3ccc(C(F)(F)F)cn3)CC2)COC1 [Example 10]
activity at 0.1 µM: 25%
activity at 1 µM: 29%

CCC1(C(=O)N2CCC(c3cnc(C(F)(F)F)c(F)c3)CC2)COC1 [Example 30]
activity at 0.1 µM: 16%
activity at 1 µM: 56%

CC1(C(=O)N2CCC(c3ccc(C(F)(F)F)nc3)C2)COC1 (centres unmarked) [Example 14]
activity at 0.1 µM: 37%
activity at 1 µM: 22%

CC1(C(=O)N2CCC(c3ccc(C(F)(F)F)nc3)C2)CNC1 (centres unmarked) [Example 39]
activity at 0.1 µM: 92%
activity at 1 µM: 70%

CN1CC(C)(C(=O)N2CCC(c3cnccc3C(F)(F)F)CC2)C1 [Example 43, (1,3-dimethylazetidin-3-yl){4-[4-(trifluoromethyl)pyridin-3-yl]piperidin-1-yl}methanone]
activity at 0.1 µM: 9%
activity at 1 µM: 11%

CC1(C(=O)N2CCC(c3ccnc(C(F)(F)F)n3)CC2)COC1 [Example 58]
activity at 0.1 µM: 88%
activity at 1 µM: 116%

O=C(C1CCOC1)N1CCC(c2ccc(C(F)(F)F)nc2)CC1 (centres unmarked) [Example 24]
activity at 0.1 µM: 46%
activity at 1 µM: 39%

CCC1(C(=O)N2CCC(c3ccc(C(F)(F)F)nc3)C2)COC1 (centres unmarked) [Example 15]
activity at 0.1 µM: 23%
activity at 1 µM: 48%

CC1(C(=O)N2CCC(c3ccc(C(F)(F)F)cn3)CC2)CNC1 [Example 37]
activity at 0.1 µM: 13%
activity at 1 µM: 106%

O=C([C@H]1CCOC1)N1CCC(c2ccc(C(F)(F)F)nc2)CC1 [Example 25]
activity at 0.1 µM: 80%
activity at 1 µM: 71%

CC1(C(=O)N2CCCC(c3ccc(C(F)(F)F)nc3)C2)CNC1 (centres unmarked) [Example 38]
activity at 0.1 µM: 6%
activity at 1 µM: 4%

CC1(C(=O)N2CCC(c3ccnc(C(F)(F)F)c3)CC2)COC1 [Example 52]
activity at 0.1 µM: 36%
activity at 1 µM: 100%

O=C(N1CCOCC1)N1CCC(c2ccc(C(F)(F)F)nc2)CC1 [Example 49, (Morpholin-4-yl){4-[6-(trifluoromethyl)pyridin-3-yl]piperidin-1-yl}methanone]
activity at 0.1 µM: 13%
activity at 1 µM: 18%

CC1(C(=O)N2CCC(c3cccnc3C(F)(F)F)CC2)CN(CC(F)(F)F)C1 [Example 66, [3-Methyl-1-(2,2,2-trifluoroethyl)azetidin-3-yl]{4-[2-(trifluoromethyl)pyridin-3-yl]piperidin-1-yl}methanone]
activity at 0.1 µM: 30%
activity at 1 µM: 77%

Cc1cc(C(F)(F)F)ncc1C1CCN(C(=O)C2(C)COC2)CC1 [Example 31, (3-methyloxetan-3-yl){4-[4-methyl-6-(trifluoromethyl)pyridin-3-yl]piperidin-1-yl}methanone]
activity at 0.1 µM: 14%
activity at 1 µM: 1%

CCC1(C(=O)N2CC[C@@H](c3ccc(C(F)(F)F)nc3)C[C@@H]2C)COC1 [Example 19]
activity at 0.1 µM: 5%
activity at 1 µM: 18%

CCCN1CC(C)(C(=O)N2CCC(c3ccc(C(F)(F)F)nc3)CC2)C1 [Example 65]
activity at 0.1 µM: 57%
activity at 1 µM: 80%

Cc1ccc(C2CCN(C(=O)C3(C)COC3)CC2)cn1 [Example 55]
activity at 0.1 µM: 75%
activity at 1 µM: 45%

CC1(C(=O)N2CC(c3ccc(C(F)(F)F)nc3)C2)COC1 [Example 13]
activity at 0.1 µM: 11%
activity at 1 µM: 7%

CC(C)c1ccc(C2CCN(C(=O)C3(C)COC3)CC2)cn1 [Example 56]
activity at 0.1 µM: 30%
activity at 1 µM: 71%

O=C(C1CCOCC1)N1CCC(c2ccc(C(F)(F)F)nc2)CC1 [Example 22]
activity at 0.1 µM: 24%
activity at 1 µM: 50%

O=C(C1CCNCC1)N1CCC(c2ccc(C(F)(F)F)nc2)CC1 [Example 40]
activity at 0.1 µM: 29%
activity at 1 µM: 8%

CC1(C(=O)N2CCC(O)(c3ccc(C(F)(F)F)nc3)CC2)COC1 [Example 20]
activity at 0.1 µM: 2%
activity at 1 µM: 91%

CC1(C(=O)N2CCC(c3ccc(C(F)(F)F)nc3)CC2)CNC1 [Example 33, (3-Methylazetidin-3-yl){4-[6-(trifluoromethyl)pyridin-3-yl]piperidin-1-yl}methanone]
activity at 0.1 µM: 22%
activity at 1 µM: 22%

CCC1(C(=O)N2CCC(c3cccnc3C(F)(F)F)CC2)COC1 [Example 7]
activity at 0.1 µM: 23%
activity at 1 µM: 52%

CC1(C(=O)N2CCC(F)(c3ccc(C(F)(F)F)nc3)CC2)COC1 [Example 21]
activity at 0.1 µM: 73%
activity at 1 µM: 77%

CC1(C(=O)N2CCC(c3cnc(C(F)(F)F)cn3)CC2)COC1 [Example 59]
activity at 0.1 µM: 100%
activity at 1 µM: 87%

O=C([C@H]1CCCO1)N1CCC(c2ccc(C(F)(F)F)nc2)CC1 [Example 27]
activity at 0.1 µM: 5%
activity at 1 µM: 29%

CC1(C(=O)N2CCC(c3cccnc3C(F)(F)F)CC2)CNC1 [Example 34]
activity at 0.1 µM: 43%
activity at 1 µM: 127%

CCC1(C(=O)N2CC[C@H](c3ccc(C(F)(F)F)nc3)C[C@@H]2C)COC1 [Example 18]
activity at 0.1 µM: 81%
activity at 1 µM: 80%

CCC1(C(=O)N2CCC(c3cnccc3C(F)(F)F)CC2)COC1 [Example 8]
activity at 0.1 µM: 7%
activity at 1 µM: 13%

CC1(C(=O)N2CCC(c3cnccc3C(F)(F)F)CC2)COC1 [Example 3, (3-methyloxetan-3-yl){4-[4-(trifluoromethyl)pyridin-3-yl]piperidin-1-yl}methanone]
activity at 0.1 µM: 6%
activity at 1 µM: 10%

O=C([C@@H]1CCOC1)N1CCC(c2ccc(C(F)(F)F)nc2)CC1 [Example 26]
activity at 0.1 µM: 26%
activity at 1 µM: 33%

CCC1(C(=O)N2CCC(c3cncc(C(F)(F)F)c3)CC2)COC1 [Example 6]
activity at 0.1 µM: 97%
activity at 1 µM: 81%

CCN1CC(C)(C(=O)N2CCC(c3ccc(C(F)(F)F)nc3)CC2)C1 [Example 64]
activity at 0.1 µM: 109%
activity at 1 µM: 86%

CC1(C(=O)N2CCC(c3ccc(C(F)(F)F)nc3)CC2)CCOCC1 [Example 23]
activity at 0.1 µM: 23%
activity at 1 µM: 49%

CC1(C)CC(C(=O)N2CCC(c3ccc(C(F)(F)F)nc3)CC2)CCO1 (centres unmarked) [Example 51]
activity at 0.1 µM: 100%
activity at 1 µM: 87%

O=C(N1CCCOCC1)N1CCC(c2ccc(C(F)(F)F)nc2)CC1 [Example 60, (1,4-Oxazepan-4-yl){4-[6-(trifluoromethyl)pyridin-3-yl]piperidin-1-yl}methanone]
activity at 0.1 µM: 67%
activity at 1 µM: 96%

CC1(C)CN(C(=O)N2CCC(c3ccc(C(F)(F)F)nc3)CC2)CCO1 [Example 61]
activity at 0.1 µM: 72%
activity at 1 µM: 49%

C[C@H]1C[C@@H](c2ccc(C(F)(F)F)nc2)CCN1C(=O)C1(C)COC1 [Example 16]
activity at 0.1 µM: 26%
activity at 1 µM: 106%
